Reference: ChEMBL document CHEMBL1208783, “An orally bioavailable positive allosteric modulator of the mGlu4 receptor with efficacy in an animal model of motor dysfunction” (Bioorg Med Chem Lett, 2010)

Tests used:
[1] = target: T1, Metabotropic glutamate receptor 4 (Homo sapiens, UniProt Q14833); experiment: Positive allosteric modulation of human mGluR4 expressed in CHO-K1 cells assessed as decrease in forskolin-induced intracellular cAMP accumulation after 1 hr by fluorescence assay; format: functional, cell-based
T1 sequence (Q14833 whole entry): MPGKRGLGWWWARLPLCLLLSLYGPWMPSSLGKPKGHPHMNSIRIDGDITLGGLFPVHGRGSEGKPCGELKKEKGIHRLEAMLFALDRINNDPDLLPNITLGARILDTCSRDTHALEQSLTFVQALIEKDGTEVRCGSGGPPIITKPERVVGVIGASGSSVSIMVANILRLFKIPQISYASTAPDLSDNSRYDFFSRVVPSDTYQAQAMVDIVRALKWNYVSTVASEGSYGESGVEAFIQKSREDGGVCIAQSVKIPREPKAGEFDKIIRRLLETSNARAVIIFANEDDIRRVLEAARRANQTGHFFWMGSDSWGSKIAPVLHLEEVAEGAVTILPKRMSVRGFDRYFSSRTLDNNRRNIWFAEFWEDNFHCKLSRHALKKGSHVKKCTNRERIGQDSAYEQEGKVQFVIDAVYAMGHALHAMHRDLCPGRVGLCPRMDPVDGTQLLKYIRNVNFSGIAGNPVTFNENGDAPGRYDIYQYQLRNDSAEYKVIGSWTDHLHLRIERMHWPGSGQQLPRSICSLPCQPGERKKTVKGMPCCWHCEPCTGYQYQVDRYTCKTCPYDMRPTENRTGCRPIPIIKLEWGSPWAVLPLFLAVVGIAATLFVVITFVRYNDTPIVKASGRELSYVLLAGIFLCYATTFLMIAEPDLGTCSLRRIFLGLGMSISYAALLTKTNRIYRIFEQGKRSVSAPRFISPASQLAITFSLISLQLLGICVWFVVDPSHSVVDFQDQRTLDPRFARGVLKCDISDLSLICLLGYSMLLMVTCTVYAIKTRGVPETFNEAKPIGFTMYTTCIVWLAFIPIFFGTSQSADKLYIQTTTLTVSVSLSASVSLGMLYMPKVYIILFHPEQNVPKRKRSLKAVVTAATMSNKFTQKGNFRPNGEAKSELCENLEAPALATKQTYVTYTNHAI

[2] = target: T1, Metabotropic glutamate receptor 4; experiment: Positive allosteric modulation of human mGluR4 expressed in CHO-K1 cells assessed as decrease in forskolin-induced intracellular cAMP accumulation after 1 hr by fluorescence assay relative to (-)-PHCC; format: functional, cell-based
[3] = Drug level in rat brain at 30 mg/kg, po measured at 30 mins post dose; format: ADME, organism-based; design: dose 30 mg/kg, route oral; conditions: read-out: Drug uptake
[4] = Ratio of drug level in brain to plasma in rat at 30 mg/kg, po measured at 30 mins post dose; format: ADME, organism-based; design: dose 30 mg/kg, route oral; conditions: read-out: BPR
[5] = target: T1, Metabotropic glutamate receptor 4; experiment: Agonist activity at human mGluR4 expressed in CHO-K1 cells; format: functional, cell-based
[6] = target: T2, Metabotropic glutamate receptor 5 (Homo sapiens, UniProt P41594); experiment: Negative allosteric modulation of human mGluR5 expressed in CHO-K1 cells; format: cell-based
T2 sequence (P41594 whole entry): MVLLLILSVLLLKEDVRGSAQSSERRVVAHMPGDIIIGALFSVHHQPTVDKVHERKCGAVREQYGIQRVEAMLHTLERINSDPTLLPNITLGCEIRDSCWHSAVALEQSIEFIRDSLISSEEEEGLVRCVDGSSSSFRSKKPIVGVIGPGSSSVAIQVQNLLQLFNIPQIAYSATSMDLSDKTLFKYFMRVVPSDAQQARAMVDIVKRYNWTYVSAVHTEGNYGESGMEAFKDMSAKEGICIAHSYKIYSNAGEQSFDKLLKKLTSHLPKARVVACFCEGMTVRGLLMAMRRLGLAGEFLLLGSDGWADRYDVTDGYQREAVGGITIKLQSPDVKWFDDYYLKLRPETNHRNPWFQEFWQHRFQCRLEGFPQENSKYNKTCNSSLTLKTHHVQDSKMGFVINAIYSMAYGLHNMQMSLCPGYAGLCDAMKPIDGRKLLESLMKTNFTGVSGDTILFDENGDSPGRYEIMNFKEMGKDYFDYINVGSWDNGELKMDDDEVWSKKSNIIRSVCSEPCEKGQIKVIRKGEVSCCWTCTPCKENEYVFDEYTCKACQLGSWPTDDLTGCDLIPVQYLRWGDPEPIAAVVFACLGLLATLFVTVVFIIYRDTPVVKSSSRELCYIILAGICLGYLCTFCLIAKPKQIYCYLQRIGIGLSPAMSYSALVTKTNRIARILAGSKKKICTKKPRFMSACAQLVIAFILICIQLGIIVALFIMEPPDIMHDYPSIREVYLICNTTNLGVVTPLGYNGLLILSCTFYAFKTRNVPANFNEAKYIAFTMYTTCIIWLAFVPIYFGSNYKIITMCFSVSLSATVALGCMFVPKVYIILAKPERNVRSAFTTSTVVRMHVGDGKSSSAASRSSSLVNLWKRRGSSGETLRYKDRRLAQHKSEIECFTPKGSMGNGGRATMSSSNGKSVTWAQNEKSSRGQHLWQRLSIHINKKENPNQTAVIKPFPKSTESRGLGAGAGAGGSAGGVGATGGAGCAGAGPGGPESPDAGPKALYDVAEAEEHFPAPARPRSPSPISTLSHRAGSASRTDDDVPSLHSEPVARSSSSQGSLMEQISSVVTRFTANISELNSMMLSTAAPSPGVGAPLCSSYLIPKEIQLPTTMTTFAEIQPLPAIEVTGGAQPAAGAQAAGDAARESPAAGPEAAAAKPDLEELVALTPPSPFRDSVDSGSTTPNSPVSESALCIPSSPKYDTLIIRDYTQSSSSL

[7] = target: T2, Metabotropic glutamate receptor 5; experiment: Positive allosteric modulation of human mGluR5 expressed in CHO-K1 cells; format: cell-based
[8] = target: T2, Metabotropic glutamate receptor 5; experiment: Agonist activity at human mGluR5 expressed in CHO-K1 cells in absence of glutamate; format: functional, cell-based
[9] = target: Metabotropic glutamate receptor 4 (Rattus norvegicus, UniProt P31423); experiment: Positive allosteric modulation of rat mGluR4 expressed in CHO-K1 cells; format: cell-based
Metabotropic glutamate receptor 4 (Rattus norvegicus, UniProt P31423), sequence (P31423 whole entry): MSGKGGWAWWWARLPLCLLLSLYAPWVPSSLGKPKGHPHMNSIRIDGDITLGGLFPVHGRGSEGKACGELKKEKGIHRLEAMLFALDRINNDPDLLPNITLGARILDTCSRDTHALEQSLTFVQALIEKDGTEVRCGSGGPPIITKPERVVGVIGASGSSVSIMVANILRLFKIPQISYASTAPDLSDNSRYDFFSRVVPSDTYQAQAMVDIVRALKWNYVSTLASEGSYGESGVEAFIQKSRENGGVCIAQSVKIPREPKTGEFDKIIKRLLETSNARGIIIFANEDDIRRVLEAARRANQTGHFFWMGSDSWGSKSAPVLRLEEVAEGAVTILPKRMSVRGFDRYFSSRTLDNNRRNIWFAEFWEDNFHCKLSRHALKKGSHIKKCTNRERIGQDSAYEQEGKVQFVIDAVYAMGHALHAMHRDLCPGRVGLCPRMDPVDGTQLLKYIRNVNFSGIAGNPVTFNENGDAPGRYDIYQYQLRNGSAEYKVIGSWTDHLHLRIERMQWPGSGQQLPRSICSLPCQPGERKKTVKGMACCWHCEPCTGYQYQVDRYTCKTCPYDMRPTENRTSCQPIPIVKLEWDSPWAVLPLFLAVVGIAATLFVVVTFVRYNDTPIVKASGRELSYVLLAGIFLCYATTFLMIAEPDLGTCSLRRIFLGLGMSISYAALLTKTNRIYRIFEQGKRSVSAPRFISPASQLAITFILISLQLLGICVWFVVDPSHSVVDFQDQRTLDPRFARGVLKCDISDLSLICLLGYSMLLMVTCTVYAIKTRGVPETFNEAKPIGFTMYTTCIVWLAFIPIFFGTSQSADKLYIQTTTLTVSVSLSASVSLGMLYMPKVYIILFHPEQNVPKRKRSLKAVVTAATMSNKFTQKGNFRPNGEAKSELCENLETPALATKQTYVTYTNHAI

[10] = target: Metabotropic glutamate receptor 5 (Rattus norvegicus, UniProt P31424); experiment: Negative allosteric modulation of rat mGluR5 expressed in CHO-K1 cells; format: cell-based
[11] = target: Adenosine receptor A2a (Homo sapiens) (UniProt P29274); experiment: Activity at adenosine A2A receptor at 10 uM
Adenosine receptor A2a (Homo sapiens), sequence (P29274 whole entry): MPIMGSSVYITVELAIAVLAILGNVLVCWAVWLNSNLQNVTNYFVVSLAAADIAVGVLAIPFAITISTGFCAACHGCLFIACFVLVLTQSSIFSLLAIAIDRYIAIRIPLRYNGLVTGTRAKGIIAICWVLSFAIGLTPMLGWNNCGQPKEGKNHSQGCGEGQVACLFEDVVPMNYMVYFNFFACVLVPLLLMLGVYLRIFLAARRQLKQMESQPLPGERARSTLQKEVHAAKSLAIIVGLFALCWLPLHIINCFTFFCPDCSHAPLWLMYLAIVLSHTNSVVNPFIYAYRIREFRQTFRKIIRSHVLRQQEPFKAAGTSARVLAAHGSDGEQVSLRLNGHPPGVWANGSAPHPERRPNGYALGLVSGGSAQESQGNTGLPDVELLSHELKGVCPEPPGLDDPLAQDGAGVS

[12] = target: T3, 5-hydroxytryptamine receptor 1A (Homo sapiens) (UniProt P08908); experiment: Activity at 5HT1A receptor at 10 uM
T3 sequence (whole entry): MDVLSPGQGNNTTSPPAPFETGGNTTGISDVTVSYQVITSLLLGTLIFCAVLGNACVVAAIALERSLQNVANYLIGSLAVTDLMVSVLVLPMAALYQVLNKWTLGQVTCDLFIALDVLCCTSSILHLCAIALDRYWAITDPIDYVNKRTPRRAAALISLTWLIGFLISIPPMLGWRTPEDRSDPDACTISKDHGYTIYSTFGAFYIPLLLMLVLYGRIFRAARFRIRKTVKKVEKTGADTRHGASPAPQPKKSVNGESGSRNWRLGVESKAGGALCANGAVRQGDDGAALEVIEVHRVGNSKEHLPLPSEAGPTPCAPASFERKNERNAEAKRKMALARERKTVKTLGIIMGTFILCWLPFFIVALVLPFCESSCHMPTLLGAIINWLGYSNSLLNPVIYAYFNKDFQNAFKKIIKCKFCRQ

[13] = target: T4, Alpha-2A adrenergic receptor (Homo sapiens) (UniProt P08913); experiment: Activity at adrenergic alpha 2A receptor at 10 uM
T4 sequence (whole entry): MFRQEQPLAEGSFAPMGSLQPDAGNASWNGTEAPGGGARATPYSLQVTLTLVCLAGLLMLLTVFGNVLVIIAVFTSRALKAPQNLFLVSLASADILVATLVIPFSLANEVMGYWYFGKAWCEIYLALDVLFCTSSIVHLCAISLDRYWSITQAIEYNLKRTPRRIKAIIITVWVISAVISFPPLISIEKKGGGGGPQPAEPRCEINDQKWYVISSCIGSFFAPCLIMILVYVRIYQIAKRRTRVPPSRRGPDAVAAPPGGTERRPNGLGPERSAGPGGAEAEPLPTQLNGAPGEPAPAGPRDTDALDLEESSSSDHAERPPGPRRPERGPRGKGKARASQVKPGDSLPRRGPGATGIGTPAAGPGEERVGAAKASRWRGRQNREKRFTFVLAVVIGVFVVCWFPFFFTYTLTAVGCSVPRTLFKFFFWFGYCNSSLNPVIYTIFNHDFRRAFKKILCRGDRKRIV

[14] = Permeability from apical to basolateral side of human Caco-2 cells; format: ADME, cell-based; conditions: read-out: permeability
[15] = Permeability from basolateral to apical side of human Caco-2 cells; format: ADME, cell-based; conditions: read-out: permeability
[16] = Plasma protein binding in rat; format: ADME, cell-free; conditions: read-out: PPB (converted)
[17] = Metabolic stability in human microsomes; format: ADME, Microsome
[18] = Metabolic stability in rat microsomes; format: ADME, Microsome
Rattus norvegicus [19] = species on record: Rattus norvegicus; experiment: Hepatic blood flow in rat; format: ADME, organism-based, Liver
Homo sapiens = species on record: Homo sapiens; experiment: Hepatic blood flow in human; format: ADME, organism-based, Liver
[20] = Clearance in rat at 2 mg/kg, iv; format: ADME, organism-based; design: dose 2 mg/kg, route intravenous; conditions: in vivo
[21] = Volume of distribution in rat at 2 mg/kg, iv; format: ADME, organism-based; design: dose 2 mg/kg, route intravenous; conditions: in vivo
[22] = Mean residence time in rat at 2 mg/kg, iv; format: ADME, organism-based; design: dose 2 mg/kg, route intravenous; conditions: in vivo, read-out: Time
[23] = Oral bioavailability in rat at 30 mg/kg, po after 30 mins; format: ADME, organism-based; conditions: in vivo
[24] = Drug level in rat plasma at 30 mg/kg, po measured at 30 mins post dose; format: ADME, organism-based; design: dose 30 mg/kg, route oral; conditions: read-out: Drug uptake
[25] = Drug level in rat CSF at 30 mg/kg, po measured at 30 mins post dose; format: ADME, organism-based, Cerebrospinal fluid; design: dose 30 mg/kg, route oral; conditions: read-out: Drug uptake
Cytochrome P450 3A4 = Cytochrome P450 3A4 (Homo sapiens, UniProt P08684); experiment: Inhibition of CYP3A4 up to 50 uM; format: ADME
Cytochrome P450 3A4, sequence (P08684 whole entry): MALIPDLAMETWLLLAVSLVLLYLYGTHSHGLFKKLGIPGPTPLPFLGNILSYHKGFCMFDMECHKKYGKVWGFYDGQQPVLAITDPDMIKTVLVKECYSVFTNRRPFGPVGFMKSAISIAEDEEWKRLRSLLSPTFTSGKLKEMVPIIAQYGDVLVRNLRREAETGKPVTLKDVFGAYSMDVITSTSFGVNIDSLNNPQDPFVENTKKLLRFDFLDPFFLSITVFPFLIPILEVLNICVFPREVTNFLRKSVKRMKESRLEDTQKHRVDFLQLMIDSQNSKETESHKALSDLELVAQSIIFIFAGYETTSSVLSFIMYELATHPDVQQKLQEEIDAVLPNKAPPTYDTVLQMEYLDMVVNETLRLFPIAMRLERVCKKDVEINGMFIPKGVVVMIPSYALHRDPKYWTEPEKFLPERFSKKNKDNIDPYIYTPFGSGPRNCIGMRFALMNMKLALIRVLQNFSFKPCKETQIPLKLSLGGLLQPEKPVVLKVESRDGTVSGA

Cytochrome P450 2D6 = Cytochrome P450 2D6 (Homo sapiens, UniProt P10635); experiment: Inhibition of CYP2D6 up to 50 uM; format: ADME
Cytochrome P450 2D6, sequence (P10635 whole entry): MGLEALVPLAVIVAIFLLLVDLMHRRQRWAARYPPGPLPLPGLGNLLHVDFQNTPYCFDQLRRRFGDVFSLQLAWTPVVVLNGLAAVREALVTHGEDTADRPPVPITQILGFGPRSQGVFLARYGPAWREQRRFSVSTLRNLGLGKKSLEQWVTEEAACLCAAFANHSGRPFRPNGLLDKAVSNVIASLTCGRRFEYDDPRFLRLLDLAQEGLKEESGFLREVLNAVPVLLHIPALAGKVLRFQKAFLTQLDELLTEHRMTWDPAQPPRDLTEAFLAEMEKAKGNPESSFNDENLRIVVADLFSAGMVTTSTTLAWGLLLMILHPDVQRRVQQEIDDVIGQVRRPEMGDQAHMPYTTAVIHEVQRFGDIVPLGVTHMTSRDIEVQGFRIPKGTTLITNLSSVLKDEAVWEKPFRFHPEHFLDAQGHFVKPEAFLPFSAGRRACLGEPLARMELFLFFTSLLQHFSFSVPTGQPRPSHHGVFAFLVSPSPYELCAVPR

Cytochrome P450 2C9 = Cytochrome P450 2C9 (Homo sapiens, UniProt P11712); experiment: Inhibition of CYP2C9 up to 50 uM; format: ADME
Cytochrome P450 2C9, sequence (P11712 whole entry): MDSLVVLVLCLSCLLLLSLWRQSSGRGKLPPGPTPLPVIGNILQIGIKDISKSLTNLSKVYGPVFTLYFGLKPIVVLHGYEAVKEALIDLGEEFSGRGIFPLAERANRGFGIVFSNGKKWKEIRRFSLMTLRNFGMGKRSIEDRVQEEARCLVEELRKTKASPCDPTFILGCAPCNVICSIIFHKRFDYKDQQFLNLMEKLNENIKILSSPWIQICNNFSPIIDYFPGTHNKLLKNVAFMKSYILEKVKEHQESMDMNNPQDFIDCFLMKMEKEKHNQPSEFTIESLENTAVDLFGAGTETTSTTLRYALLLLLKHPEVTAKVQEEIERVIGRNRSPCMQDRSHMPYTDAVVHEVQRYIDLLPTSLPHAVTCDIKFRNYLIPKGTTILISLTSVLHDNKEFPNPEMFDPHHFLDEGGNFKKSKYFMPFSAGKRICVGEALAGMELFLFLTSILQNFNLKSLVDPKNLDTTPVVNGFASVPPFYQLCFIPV

Cytochrome P450 2C19 = Cytochrome P450 2C19 (Homo sapiens, UniProt P33261); experiment: Inhibition of CYP2C19 up to 50 uM; format: ADME
Rattus norvegicus [26] = experiment: Inhibition of haloperidol-induced catalepsy in po dosed rat administered 30 mins before haloperidol challenge; format: functional, organism-based

## N#Cc1ccc(/C=C/c2ccnc(N)n2)cc1
[1]
  EC50: > 30 µM

## Cc1ccc(/C=C/c2ccnc(N)n2)cc1
[1]
  EC50: > 30 µM

## Nc1nc(O)cc(/C=C/c2ccccc2)n1
[1]
  EC50: > 30 µM

## Nc1ncc(Br)c(/C=C/c2ccccc2)n1
[1]
  EC50: 1.3 µM
[2]
  Emax: 94%

## Nc1nc(/C=C/c2ccccc2)cc(C(F)(F)F)n1
[1]
  EC50: 0.6 µM
[2]
  Emax: 95%

## Sc1nccc(/C=C/c2ccccc2)n1
[1]
  EC50: 7.8 µM
[2]
  Emax: 115%

## Cc1nccc(/C=C/c2ccccc2)n1
[1]
  EC50: 6.9 µM
[2]
  Emax: 67%

## Nc1nccc(/C=C/c2cccnc2)n1
[1]
  EC50: 16.4 µM
[2]
  Emax: 55%

## COc1cc(/C=C/c2ccccc2)nc(N)n1
[1]
  EC50: 2 µM
[2]
  Emax: 106%

## Nc1nccc(/C=C/c2ccco2)n1
[1]
  EC50: 9.4 µM
[2]
  Emax: 94%

## Nc1nccc(/C=C/c2ccccn2)n1
[1]
  EC50: 11.7 µM
[2]
  Emax: 92%

## CS(=O)(=O)Nc1nccc(/C=C/c2ccccc2)n1
[1]
  EC50: > 30 µM

## N#Cc1ccccc1/C=C/c1ccnc(N)n1
[1]
  EC50: > 30 µM

## Cc1cnc(N)nc1/C=C/c1ccccc1
[1]
  EC50: 0.2 µM
[2]
  Emax: 94%

## Cc1nc(N)nc(/C=C/c2ccccc2)c1C
[1]
  EC50: 1.6 µM
[2]
  Emax: 88%

## Nc1nccc(/C=C/c2cccs2)n1
[1]
  EC50: 4.1 µM
[2]
  Emax: 98%

## Nc1nccc(/C=C/c2ccccc2)n1
[3]
  concentration at 0.5 h: 33.8 µM
[4]
  Kp at 0.5 h: 2.9
[1]
  EC50: 1 µM
[2]
  Emax: 106%
[5]
  EC50: > 30 µM
[6]
  IC50: > 30 µM
[7]
  EC50: > 10 µM
[8]
  EC50: > 10 µM
[9]
  EC50: 1 µM
[10]
  IC50: > 10 µM
[11]
  Activity: > 50%
[12]
  Activity: > 50%
[13]
  Activity: > 50%
[14]
  Papp A→B: 41.9 ×10⁻⁶ cm/s
[15]
  Papp B→A: 19.6 ×10⁻⁶ cm/s
[16]
  fraction unbound: 0.1
[17]
  Stability: 62%
[18]
  Stability: 62%
Rattus norvegicus [19]
  QH: 83%
Homo sapiens
  QH: 83%
[20]
  clearance: 75 mL/min/kg
[21]
  Vd: 2.7 L/kg
[22]
  MRT: 36 min
[23]
  bioavailability: 51%
[24]
  concentration at 0.5 h: 11.6 µM
[25]
  concentration at 0.5 h: 0.7 µM
Cytochrome P450 3A4
  inhibition (INH): Not Active
Cytochrome P450 2D6
  inhibition (INH): Not Active
Cytochrome P450 2C9
  inhibition (INH): Not Active
Cytochrome P450 2C19
  inhibition (INH): Not Active
Rattus norvegicus [26]
  Activity: Dose-dependent effect
  inhibition: Dose-dependent effect

## Nc1cccc(/C=C/c2ccccc2)n1
[1]
  EC50: 5.8 µM
[2]
  Emax: 92%

## CCOC(=O)C(=O)Nc1nccc(/C=C/c2ccccc2)n1
[1]
  EC50: 5 µM
[2]
  Emax: 82%

## Nc1nccc(-c2cc3ccccc3s2)n1
[1]
  EC50: > 30 µM

## Cc1cc(/C=C/c2ccccc2)nc(N)n1
[1]
  EC50: 0.8 µM
[2]
  Emax: 99%

## Nc1nccc(/C=C/c2ccccc2F)n1
[1]
  EC50: 2.9 µM
[2]
  Emax: 101%

## Nc1nccc(-c2cc3ccccc3o2)n1
[1]
  EC50: 4.9 µM
[2]
  Emax: 58%

## N#Cc1cccc(/C=C/c2ccnc(N)n2)c1
[1]
  EC50: > 30 µM

## Cc1ccccc1/C=C/c1ccnc(N)n1
[1]
  EC50: > 30 µM

## CNc1nccc(/C=C/c2ccccc2)n1
[1]
  EC50: > 30 µM

## Cc1cccc(/C=C/c2ccnc(N)n2)c1
[1]
  EC50: > 30 µM

## Nc1nccc(/C=C/c2cccc(F)c2)n1
[1]
  EC50: 4.5 µM
[2]
  Emax: 99%

## Nc1cc(/C=C/c2ccccc2)nc(N)n1
[1]
  EC50: > 30 µM

## Nc1ncc([C@@H]2C[C@H]2c2ccccc2)cn1
[1]
  EC50: > 30 µM

## Nc1nccc(C#Cc2ccccc2)n1
[1]
  EC50: 20 µM
[2]
  Emax: 86%

## Nc1cncc(/C=C/c2ccccc2)n1
[1]
  EC50: 15.8 µM
[2]
  Emax: 72%

## Nc1ncc(Cl)c(/C=C/c2ccccc2)n1
[1]
  EC50: 1.6 µM
[2]
  Emax: 102%

## Nc1nccc(CCc2ccccc2)n1
[1]
  EC50: > 30 µM

## Nc1nccc(-c2ccc3ccccc3c2)n1
[1]
  EC50: > 30 µM

## Nc1nccc(/C=C/c2ccc(F)cc2)n1
[1]
  EC50: 4.5 µM
[2]
  Emax: 106%

## Nc1nccc(/C=C/c2ccncc2)n1
[1]
  EC50: > 30 µM

## CN(C)c1nccc(/C=C/c2ccccc2)n1
[1]
  EC50: > 30 µM

## C(=C\c1ccnc(-c2ccccc2)n1)/c1ccccc1
[1]
  EC50: > 30 µM
